Data: US20120087985A1, “SMALL PEPTIDE SEQUENCES FOR STABILIZING BIOMOLECULES” (Biodel Inc., priority 2010, published 2012)

Key:
Glucose oxidase = Glucose oxidase (Aspergillus niger, UniProt P13006); test: Stabilization and precipitation of glucose oxidase by SPS; format: physicochemical
Glucagon = Glucagon (Homo sapiens, UniProt P01275); test: Entrapment and precipitation of glucagon in SPS particles; format: physicochemical
Excerpt: Synthesis of SPS and Precipitation of Glucagon
These sequences are soluble at very low pH and form microparticles that trap peptides in solution within the particles. They remain intact at pH 3-5 in the vicinity of their isoelectric point. Solubility increases in the physiological pH range.

[1] = pH of the solution brought to neutral

Chain of Glucagon (P01275 53-81 limits assumed, species assumed): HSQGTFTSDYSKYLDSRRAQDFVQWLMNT
Chain of Glucose oxidase (P13006 17-605, species assumed): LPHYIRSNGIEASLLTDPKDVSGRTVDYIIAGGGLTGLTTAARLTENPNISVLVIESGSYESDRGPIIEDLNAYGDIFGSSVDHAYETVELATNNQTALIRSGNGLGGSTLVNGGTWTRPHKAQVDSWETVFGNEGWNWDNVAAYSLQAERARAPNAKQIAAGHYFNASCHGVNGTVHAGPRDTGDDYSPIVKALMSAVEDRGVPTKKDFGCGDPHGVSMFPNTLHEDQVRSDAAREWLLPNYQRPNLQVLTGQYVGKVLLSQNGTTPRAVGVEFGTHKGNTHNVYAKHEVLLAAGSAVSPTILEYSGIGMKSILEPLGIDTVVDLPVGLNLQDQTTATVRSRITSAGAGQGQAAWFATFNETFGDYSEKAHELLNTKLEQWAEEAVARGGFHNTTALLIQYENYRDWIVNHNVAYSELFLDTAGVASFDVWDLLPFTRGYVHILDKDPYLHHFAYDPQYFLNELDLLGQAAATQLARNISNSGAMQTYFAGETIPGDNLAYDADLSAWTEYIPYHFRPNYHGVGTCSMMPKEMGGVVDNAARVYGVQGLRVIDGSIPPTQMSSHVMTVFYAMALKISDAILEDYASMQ

Substance: H-Aspartic Acid-Tryptophan-Aspartic Acid —OH
- stabilization and precipitation of glucose oxidase (Glucose oxidase; in aqueous solution, stored along with insulin glargine at a pH of 4): stabilized and precipitated
- release of glucose oxidase (Glucose oxidase; [1]): released intact
- glucagon remained in the particles (entrapment efficiency) (Glucagon; glucagon entrapped in SPS particles): more than 60%
- stabilization of glucagon (Glucagon; in aqueous solution): stabilized it in aqueous solution
- release of glucagon (Glucagon; [1]): released the glucagon intact
